# Measurements reported in US11214803B2, “Modulators of YAP1 expression” (Ionis Pharmaceuticals, Inc., priority 2019, dated 2022).
# Strand notation (5' to 3'): a small letter for the sugar, then the base; units joined by * are phosphorothioate-linked, units joined directly phosphodiester-linked; [ ] holds rarer units or linkages, { } end groups; capitals alone tell only the bases. e = 2'-O-(2-methoxyethyl) (MOE); k = constrained ethyl (cEt); [5mC] = 5-methylcytosine; d = 2'-deoxy (DNA); m = 2'-O-methyl
# System: Yap1 mRNA
# Assay: Antisense inhibition of human Yap1 in SNU-449 cells by modified oligonucleotides, single dose (Example 5, RTS36584)
# Format: cell-based
# Settings: Table 39; SNU-449 cells, 10,000 cells per well, free uptake, 2,000 nM oligonucleotide, approx. 48 hours; RTS36584; normalized to RIBOGREEN; Yap1 mRNA relative to untreated control
# Summary of the method: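 Plate SNU-449 cells at 10,000 per well; add 2,000 nM modified oligonucleotide without transfection reagent; after ~48 h isolate RNA, run qRT-PCR with RTS36584, normalise to RIBOGREEN and report % UTC.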
row,Substance,YAP1 (% UTC)
1,1198393 (kT*dT*dA*d[5mC]*dA*dT*dT*dA*dG*dG*dA*kA*e[5mC]*kA*eA*kG; antisense) [Compound 1198393],58
2,1198389 (kG*dG*dT*dA*dT*dA*dA*d[5mC]*dT*dG*dG*kG*e[5mC]*kA*eA*kA; antisense) [Compound 1198389],28
3,1198419 (kA*dT*dT*d[5mC]*dA*dG*dA*dT*dT*dT*dA*kG*eG*kA*eT*kG; antisense) [Compound 1198419],78

# Same assay, conditions: Table 40 (separate experiment); SNU-449 cells, 10,000 cells per well, free uptake, 2,000 nM oligonucleotide, approx. 48 hours; RTS36584; normalized to RIBOGREEN; Yap1 mRNA relative to untreated control
row,Substance,YAP1 (% UTC)
1,1198726 (kT*eT*kA*dG*dA*dG*dT*dA*dT*dG*dT*dG*eG*e[5mC]*kA*kA; antisense) [Compound 1198726],28
2,1198731 (kT*e[5mC]*kT*dA*dT*dA*dT*dT*dA*dG*dA*dG*eT*eA*kT*kG; antisense) [Compound 1198731],59
3,1198761 (kT*eT*kT*dA*dG*dG*dA*dT*dG*d[5mC]*dA*dT*eG*eG*kT*kT; antisense) [Compound 1198761],42

# Same assay, conditions: Table 41; SNU-449 cells, 10,000 cells per well, free uptake, 2,000 nM modified oligonucleotide, approximately 48 hours; RTS36584; normalized to RIBOGREEN; Yap1 mRNA relative to untreated control cells
row,Substance,YAP1 (% UTC)
1,1198689 (antisense kA*kA*dT*dA*dT*dT*dG*d[5mC]*dA*dA*dT*d[5mC]*kT*eG*kT*e[5mC]) [Compound 1198689],91
2,1198632 (kG*kA*dA*dA*dT*dT*dG*dT*d[5mC]*dT*d[5mC]*dA*kT*eG*k[5mC]*e[5mC]; antisense) [Compound 1198632],21
3,1198769 (kT*eT*kA*dT*dA*dT*dG*dG*dT*dT*dT*dT*eG*eT*kG*kT; antisense) [Compound 1198769],77
4,1198642 (kT*kA*dT*dT*dA*dG*dA*dG*dT*dA*dT*dG*kT*eG*kG*e[5mC]; antisense) [Compound 1198642],19

# Same assay, conditions: Table 42 (separate experiment); SNU-449 cells, 10,000 cells per well, free uptake, 2,000 nM modified oligonucleotide, approximately 48 hours; RTS36584; normalized to RIBOGREEN; Yap1 mRNA relative to untreated control cells
row,Substance,YAP1 (% UTC)
1,1095482 (antisense k[5mC]*kT*dG*dA*dG*dG*dT*dA*dT*dA*dA*d[5mC]*kT*eG*kG*eG) [Compound 1095482],72
2,1198680 (antisense k[5mC]*kT*dT*dA*dT*dA*dT*dG*dG*dT*dT*dT*kT*eG*kT*eG) [Compound 1198680],28
3,1095463 (antisense kA*k[5mC]*dT*dG*dA*dG*dG*dT*dA*dT*dA*dA*k[5mC]*eT*kG*eG) [Compound 1095463],37

# Same assay, conditions: Table 44 experiment; SNU-449 cells, 10,000 cells per well, free uptake, 2,000 nM, approximately 48 hours; RTS36584; Yap1 mRNA normalized to RIBOGREEN, relative to untreated control cells
row,Substance,YAP1 (% UTC)
1,1198539 (antisense kG*kA*d[5mC]*dT*dA*dA*dG*dT*dA*dA*dG*eG*kT*eT*kT*e[5mC]) [Compound 1198539],54
2,1198891 (kA*kT*dT*dG*dT*d[5mC]*dT*d[5mC]*dA*dT*dG*k[5mC]*d[5mC]*kT*dT*kA) [Compound 1198891],18
3,1198536 (kT*kA*dA*dG*dT*dA*dA*dG*dG*dT*dT*eT*k[5mC]*e[5mC]*k[5mC]*eA; antisense) [Compound 1198536],20
4,1198521 (kA*kT*dG*dT*dA*dA*dT*dA*dT*dT*dG*e[5mC]*kA*eA*kT*e[5mC]; antisense) [Compound 1198521],44

# Same assay, conditions: Table 45; Yap1 mRNA as percent of untreated control, SNU-449 cells, single dose
row,Substance,YAP1 (% UTC)
1,1198969 (kA*kA*dG*dT*dA*dA*dG*dG*dT*dT*dT*k[5mC]*d[5mC]*k[5mC]*dA*kG; antisense) [Compound 1198969],31
2,1198932 (kT*kT*dA*dG*dG*dA*dT*dG*d[5mC]*dA*dT*kG*dG*kT*dT*kT; antisense) [Compound 1198932],35

# Same assay, conditions: Table 46; Yap1 mRNA as percent of untreated control, SNU-449 cells, single dose
row,Substance,YAP1 (% UT)
1,1095427 (antisense k[5mC]*kA*d[5mC]*dT*dG*dA*dG*dG*dT*dA*dT*kA*eA*k[5mC]*eT*kG) [Compound 1095427],45

# Same assay, conditions: Table 48; Yap1 mRNA level relative to untreated control; modified oligonucleotides targeting SEQ ID NO.: 1 and 2
row,Substance,YAP1 (% UT)
1,1197199 (antisense kA*kT*kA*dT*dG*dG*dT*dT*dT*dT*dG*dT*dG*kT*kG*kT) [Compound 1197199],75

# Same assay, conditions: Table 49; Yap1 mRNA level relative to untreated control; modified oligonucleotides targeting SEQ ID NO.: 1 and 2
row,Substance,YAP1 (% UT)
1,1198580 (antisense kG*kT*kG*d[5mC]*dT*dT*dT*dG*dG*dA*dA*dG*kA*kT*k[5mC]*eT) [Compound 1198580],43
2,1198336 (k[5mC]*kT*kT*dA*dT*dA*dT*dG*dG*dT*dT*dT*kT*eG*kT*eG; antisense) [Compound 1198336],31
3,1198342 (kG*kA*k[5mC]*dA*dA*d[5mC]*dT*d[5mC]*dT*dT*dA*dT*kA*eT*kG*eG; antisense) [Compound 1198342],101
4,1198302 (kT*kA*kT*dA*dA*d[5mC]*dT*dG*dG*dG*d[5mC]*dA*kA*eA*kT*eT; antisense) [Compound 1198302],67
5,1198351 (kT*kT*kT*dA*dT*dG*dT*dA*dA*dT*dA*dT*kT*eG*k[5mC]*eA; antisense) [Compound 1198351],40

# Same assay, conditions: Table 50; Yap1 mRNA remaining as percent of untreated control (UT), SNU-449 cells, single dose
row,Substance,YAP1 (% UT)
1,1198562 (antisense kA*kG*kG*dT*dA*dT*dA*dA*d[5mC]*dT*dG*dG*kG*k[5mC]*kA*eA) [Compound 1198562],30
2,1198595 (antisense kT*k[5mC]*kT*dT*dA*dT*dA*dT*dG*dG*dT*dT*kT*kT*kG*eT) [Compound 1198595],27
3,1198594 (antisense k[5mC]*kT*kT*dA*dT*dA*dT*dG*dG*dT*dT*dT*kT*kG*kT*eG) [Compound 1198594],23

# Same assay, conditions: Table 51; Yap1 mRNA remaining as percent of untreated control (UT), SNU-449 cells, single dose
row,Substance,YAP1 (% UT)
1,1197250 (antisense kT*kT*kG*dG*mA*dA*dG*dA*dT*d[5mC]*dT*dG*dA*kA*kA*k[5mC]) [Compound 1197250],60
2,1197251 (antisense kT*kT*kT*dG*mG*dA*dA*dG*dA*dT*d[5mC]*dT*dG*kA*kA*kA) [Compound 1197251],74
3,"1197295 (G_{ks}^{m}C_{ks}T_{ks}T_{ds}U_{ys}G_{ds}G_{ds}A_{ds}A_{ds}G_{ds}A_{ds}T_{ds}C_{ds}T_{ks}G_{ks}A_{k}; as printed in the source, key not given here) [Compound 1197295]",24
4,"1197262 (A_{ks}A_{ks}^{m}C_{ks}T_{ds}C_{ys}T_{ds}T_{ds}A_{ds}T_{ds}A_{ds}T_{ds}G_{ds}G_{ds}T_{ks}T_{ks}T_{k}; as printed in the source, key not given here) [Compound 1197262]",89
5,1197263 (kG*kA*k[5mC]*dA*mA*d[5mC]*dT*d[5mC]*dT*dT*dA*dT*dA*kT*kG*kG) [Compound 1197263],91

# Same assay, conditions: Table 52; Yap1 mRNA, modified oligonucleotides targeting SEQ ID NO: 1 and 2
row,Substance,YAP1 (% UT)
1,1200788 (kG*kA*kA*dA*dT*mU*dG*dT*d[5mC]*dT*d[5mC]*dA*dT*kG*k[5mC]*k[5mC]; antisense) [Compound 1200788],19
2,1200865 (kT*kA*kA*dG*dG*mU*dT*dT*d[5mC]*d[5mC]*d[5mC]*dA*dG*kA*kT*kT; antisense) [Compound 1200865],54
3,1200815 (k[5mC]*kA*k[5mC]*dT*dT*mU*dT*dA*d[5mC]*dA*dT*dT*dA*kG*kG*kA; antisense) [Compound 1200815],55
4,1200835 (k[5mC]*kA*kG*dA*dT*mU*dT*dA*dG*dG*dA*dT*dG*k[5mC]*kA*kT; antisense) [Compound 1200835],82
5,1200846 (kG*kA*k[5mC]*dA*dA*mC*dT*d[5mC]*dT*dT*dA*dT*dA*kT*kG*kG; antisense) [Compound 1200846],38

# Same assay, conditions: Yap1 mRNA, percent of untreated control; modified oligonucleotides targeting SEQ ID NO: 1 and 2; Table 47
row,Substance,YAP1 (% UT)
1,1009325 (kA*kG*kA*dG*dT*dA*dT*dG*dT*dG*dG*d[5mC]*dA*kA*kT*kA; antisense) [Compound 1009325],16
2,1197225 (antisense kG*kA*k[5mC]*dT*dA*dA*dG*dT*dA*dA*dG*dG*dT*kT*kT*k[5mC]) [Compound 1197225],46
